Assay [1] has as its target 5-hydroxytryptamine receptor 7 (Homo sapiens, UniProt P34969). The assay is described as follows: Radioligand Binding Assay. Here is the method:
(§1) 1H nuclear magnetic resonance (NMR) and 13C NMR spectra were recorded on a Bruker Avance DPX250 spectrometer (250.131 MHz), in CDCl3 and using tetramethylsilane asinternal standard; multiplicities were determined by the DEPT 135 sequence, and chemical shifts are reported in parts per million (ppm). Coupling constants are reported in units of hertz (Hz) if applicable. Infrared (IR) spectra were recorded on a PerkinElmer Paragon 1000 PC Fourier transform infrared (FTIR) spectrometer using NaCl films or KBr pellets. Mass spectra (MS) were recorded on a PerkinElmerSCIEX AOI 300 spectrometer. Flash chromatography was performed on Merck […] (230-400 mesh) silica gel under nitrogen pressure. Thin layer chromatography (TLC)was carried out on Merck silica gel 60 F254 precoated plates. Visualization was made with ultraviolet light at 254 nm.

The target in assay [2] is T1, 5-hydroxytryptamine receptor 1A (Rattus norvegicus, UniProt P19327).
T1 sequence (P19327 whole entry): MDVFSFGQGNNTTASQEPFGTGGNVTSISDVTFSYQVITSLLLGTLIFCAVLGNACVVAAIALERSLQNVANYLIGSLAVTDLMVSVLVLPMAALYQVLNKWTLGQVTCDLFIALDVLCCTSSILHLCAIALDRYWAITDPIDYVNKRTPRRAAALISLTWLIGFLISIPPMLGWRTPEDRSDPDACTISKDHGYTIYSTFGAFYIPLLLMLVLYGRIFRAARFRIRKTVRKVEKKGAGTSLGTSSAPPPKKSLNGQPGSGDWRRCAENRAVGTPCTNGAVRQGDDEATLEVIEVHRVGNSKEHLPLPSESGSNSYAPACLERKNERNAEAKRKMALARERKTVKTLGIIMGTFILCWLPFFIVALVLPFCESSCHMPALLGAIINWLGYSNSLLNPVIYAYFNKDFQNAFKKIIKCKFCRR
As to the kind of experiment: Radioligand Binding Assay. As for the experimental part:
as §1

Bounds are passed on as bounds.

5-hydroxytryptamine receptor 7, sequence (P34969 whole entry): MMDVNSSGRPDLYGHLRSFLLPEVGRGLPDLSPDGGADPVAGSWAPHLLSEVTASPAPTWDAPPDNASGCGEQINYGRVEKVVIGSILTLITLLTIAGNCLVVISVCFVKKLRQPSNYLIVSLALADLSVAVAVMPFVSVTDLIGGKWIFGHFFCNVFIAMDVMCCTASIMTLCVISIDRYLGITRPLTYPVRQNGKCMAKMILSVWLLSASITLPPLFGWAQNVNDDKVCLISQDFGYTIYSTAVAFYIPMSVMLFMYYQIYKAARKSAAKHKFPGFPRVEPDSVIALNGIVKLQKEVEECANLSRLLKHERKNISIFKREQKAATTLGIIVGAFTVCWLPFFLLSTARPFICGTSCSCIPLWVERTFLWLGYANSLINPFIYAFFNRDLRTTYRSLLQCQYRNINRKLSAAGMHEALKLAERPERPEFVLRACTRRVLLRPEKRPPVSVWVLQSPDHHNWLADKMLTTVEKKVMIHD

Regarding `O=c1[nH]c2ccccc2n1CCN1CCCN2CCCCC2C1` (stereo unspecified) [1-[2-(Octahydropyrido[1,2-a][1,4]diazepin-2-yl)ethyl]-1,3-dihydrobenzo-imidazol-2-one (8)], in assay [1], affinity was put at a Ki of 23.6 µM.
Take `c1cnc2c(c1)ccn2CCN1CCCN2CCCCC2C1` (stereo unspecified) [2-(2-Pyrrolo[2,3-b]pyridin-1-ylethyl)decahydropyrido[1,2-a][1,4]diazepine (5)]: the Ki (usually the dissociation constant of the complex between target and ligand, obtained from inhibition or displacement) came out at 24.5 µM in assay [2] and 14 µM in assay [1].
The like results for `Brc1ccc2ccn(CCN3CCCN4CCCCC4C3)c2n1` (stereo unspecified) [2-[2-(6-Bromopyrrolo[2,3-b]pyridin-1-yl)ethyl]decahydropyrido[1,2-a][1,4]diazepine (10)] were, in that order, 14.9 µM and 0.492 µM.
For `Clc1ccc2ccn(CCN3CCCN4CCCCC4C3)c2n1` (stereo unspecified) [2-[2-(6-Chloropyrrolo[2,3-b]pyridin-1-yl)ethyl]decahydropyrido[1,2-a][1,4]diazepine (11)] the same measures were 15 µM and 0.16 µM.
For `Clc1nccc2ccn(CCN3CCCN4CCCCC4C3)c12` (stereo unspecified) [2-[2-(7-Chloropyrrolo[2,3-c]pyridin-1-yl)ethyl]decahydropyrido[1,2-a][1,4]diazepine (6)] the same measures were 16 µM and 5.31 µM.
As to `c1cc2ccn(CCN3CCCN4CCCCC4C3)c2cn1` (stereo unspecified) [2-[(2-Pyrrolo[2,3-c]pyridin-1-yl)ethyl]decahydropyrido[1,2-a][1,4]diazepine (7)], the Ki in assay [2] and in assay [1] was above 10 µM in each case.

(Values after BindingDB's records for doi:10.3109/14756360903179393 (University of Orleans, 2010).)
